ChEMBL document CHEMBL4354843, “Structure-Based Design of a Potent and Selective Covalent Inhibitor for SRC Kinase That Targets a P-Loop Cysteine” (J Med Chem, 2020)

Experiments:
[1] = target: Fibroblast growth factor receptor 1 (Homo sapiens, UniProt P11362); experiment: Inhibition of recombinant human His-tagged FGFR1 (308 to 731 residues) expressed in baculovirus expression system using tyrosine-4 peptide as substrate incubated for 1 hr by Z'-LYTE assay
[2] = target: Proto-oncogene tyrosine-protein kinase Src (Homo sapiens, UniProt P12931); experiment: Inhibition of recombinant human His-tagged full length SRC expressed in baculovirus expression system using tyrosine-2 peptide as substrate incubated for 1 hr by Z'-LYTE assay
[3] = target: T1, Mitogen-activated protein kinase kinase kinase 7 (Homo sapiens, UniProt O43318); experiment: Inhibition of tracer 222 binding to recombinant human His-tagged TAK1 (437 to 504 residues) expressed in baculovirus expression system […] incubated for 60 mins by Lanthascreen assay
T1 sequence (O43318 whole entry): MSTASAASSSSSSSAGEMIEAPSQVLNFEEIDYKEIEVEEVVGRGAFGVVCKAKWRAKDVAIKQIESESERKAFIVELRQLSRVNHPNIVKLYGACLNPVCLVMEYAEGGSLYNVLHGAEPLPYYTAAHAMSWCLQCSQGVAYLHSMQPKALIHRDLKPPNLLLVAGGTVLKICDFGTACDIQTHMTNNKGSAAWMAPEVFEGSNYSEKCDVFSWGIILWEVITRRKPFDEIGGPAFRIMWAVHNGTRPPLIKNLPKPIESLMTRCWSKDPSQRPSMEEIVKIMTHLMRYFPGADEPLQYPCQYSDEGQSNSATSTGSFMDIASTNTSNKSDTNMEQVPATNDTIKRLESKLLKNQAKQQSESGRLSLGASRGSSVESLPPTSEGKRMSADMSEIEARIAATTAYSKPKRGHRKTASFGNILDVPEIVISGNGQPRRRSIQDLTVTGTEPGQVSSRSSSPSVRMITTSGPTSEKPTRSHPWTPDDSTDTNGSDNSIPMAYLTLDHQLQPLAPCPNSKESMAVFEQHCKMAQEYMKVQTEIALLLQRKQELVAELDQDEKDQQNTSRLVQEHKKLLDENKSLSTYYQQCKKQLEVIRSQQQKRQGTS

Fibroblast growth factor receptor 1, sequence (P11362 whole entry, the tested form may be a part): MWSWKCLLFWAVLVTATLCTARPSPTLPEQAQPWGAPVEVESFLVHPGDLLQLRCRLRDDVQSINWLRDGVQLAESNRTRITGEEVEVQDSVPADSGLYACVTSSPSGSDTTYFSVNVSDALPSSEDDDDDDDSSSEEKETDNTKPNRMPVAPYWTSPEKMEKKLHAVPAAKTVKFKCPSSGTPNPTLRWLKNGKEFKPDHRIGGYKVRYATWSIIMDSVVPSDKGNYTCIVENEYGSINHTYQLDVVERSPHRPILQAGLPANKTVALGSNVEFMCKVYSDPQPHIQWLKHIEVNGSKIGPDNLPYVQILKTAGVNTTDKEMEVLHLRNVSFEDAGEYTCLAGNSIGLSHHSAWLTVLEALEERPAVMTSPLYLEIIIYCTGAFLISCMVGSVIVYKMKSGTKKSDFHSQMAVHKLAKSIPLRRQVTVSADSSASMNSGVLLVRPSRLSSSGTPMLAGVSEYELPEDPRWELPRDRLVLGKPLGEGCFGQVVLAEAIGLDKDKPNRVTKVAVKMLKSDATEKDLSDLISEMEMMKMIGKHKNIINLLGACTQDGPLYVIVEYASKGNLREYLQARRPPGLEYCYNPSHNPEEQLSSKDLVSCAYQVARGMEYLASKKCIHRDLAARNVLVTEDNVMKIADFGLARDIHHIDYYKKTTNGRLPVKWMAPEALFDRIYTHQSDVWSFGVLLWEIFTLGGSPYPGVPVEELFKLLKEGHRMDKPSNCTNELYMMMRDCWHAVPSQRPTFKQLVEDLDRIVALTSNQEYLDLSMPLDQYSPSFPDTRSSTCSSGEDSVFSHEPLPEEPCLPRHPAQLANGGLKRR
Proto-oncogene tyrosine-protein kinase Src, sequence (P12931 2-536 limits assumed): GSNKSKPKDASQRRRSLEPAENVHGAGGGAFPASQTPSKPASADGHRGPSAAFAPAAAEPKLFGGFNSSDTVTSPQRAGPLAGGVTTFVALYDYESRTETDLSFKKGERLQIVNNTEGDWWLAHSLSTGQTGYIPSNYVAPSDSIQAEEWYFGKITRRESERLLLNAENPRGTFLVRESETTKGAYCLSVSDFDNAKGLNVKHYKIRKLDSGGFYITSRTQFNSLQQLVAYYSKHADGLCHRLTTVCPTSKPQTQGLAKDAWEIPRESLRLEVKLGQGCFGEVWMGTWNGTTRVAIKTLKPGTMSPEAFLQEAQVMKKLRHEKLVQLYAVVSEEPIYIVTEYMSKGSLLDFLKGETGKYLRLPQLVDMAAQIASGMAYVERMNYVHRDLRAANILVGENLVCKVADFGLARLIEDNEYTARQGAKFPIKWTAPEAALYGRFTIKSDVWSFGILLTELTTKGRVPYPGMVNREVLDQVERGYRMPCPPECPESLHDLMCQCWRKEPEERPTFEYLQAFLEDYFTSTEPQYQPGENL

Row | SMILES | IC50 [1] [nM] | IC50 [2] [nM] | IC50 [3] [nM]
1 | C=CC(=O)Nc1ccccc1Nc1nc(Nc2ccc(N3CCN(C)CC3)cc2)ncc1C(=O)Nc1c(C)cc(Cl)cc1Cl | > 10000 |  | 
2 | C=CC(=O)Nc1ccccc1Nc1nc(Nc2ccc(N3CCN(C)CC3)cc2)ncc1C(=O)Nc1ccccc1CC | > 10000 |  | 
3 | C=CC(=O)Nc1ccccc1Nc1nc(Nc2ccc(N3CCN(C)CC3)cc2)ncc1C(=O)Nc1c(Cl)c(OC)cc(OC)c1Cl | 391 |  | 
4 | C=CC(=O)Nc1ccccc1Nc1nc(Nc2ccc(N3CCN(C)CC3)cc2)ncc1OCc1ccc(C)cc1 | 119 | 5 | 
5 | C=CC(=O)Nc1ccccc1Nc1nc(Nc2ccc(N3CCN(C)CC3)cc2)ncc1C(=O)Nc1cc(OC)c(OC)cc1C | 6710 |  | 
6 | C=CC(=O)Nc1ccccc1Nc1nc(Nc2ccc(N3CCN(C)CC3)cc2)ncc1OCc1c(C)cccc1Cl | 373 | 3 | 
7 | C=CC(=O)Nc1ccccc1Nc1nc(Nc2ccc(N3CCN(C)CC3)cc2)ncc1OCc1ccc(Oc2ccccc2)cc1 | 1050 | 6 | 
8 | C=CC(=O)Nc1ccccc1Nc1nc(Nc2ccc(N3CCC(N4CCN(C)CC4)CC3)cc2)ncc1C(=O)Nc1c(C)cccc1Cl |  | > 10000 | 
9 | C=CC(=O)Nc1ccccc1Nc1nc(Nc2ccc(N3CCN(C)CC3)cc2)ncc1C(=O)Nc1ccc(Oc2ccccc2)cc1 | > 10000 | > 3330 | 
10 | C=CC(=O)Nc1ccccc1Nc1nc(Nc2ccc(N3CCN(C)CC3)cc2)ncc1C(=O)Nc1cc(C)cc(Cl)c1 | > 10000 |  | 
11 | C=CC(=O)Nc1ccccc1Nc1nc(Nc2ccc(N3CCN(C)CC3)cc2)ncc1C(=O)Nc1c(C)cc(C)cc1Cl | > 3330 |  | 
12 | C=CC(=O)Nc1ccccc1Nc1nc(Nc2ccc(N3CCN(C)CC3)cc2)ncc1C(=O)Nc1c(C)cc(C#N)cc1Cl | > 10000 |  | 

Further compounds by falling IC50 [1], results first:

Row | IC50 [1] [nM] | IC50 [2] [nM] | IC50 [3] [nM] | SMILES
13 | 89 | 5 | 5460 | C=CC(=O)Nc1ccccc1Nc1nc(Nc2ccc(N3CCN(C)CC3)cc2)ncc1-c1ccc(Oc2ccccc2)cc1
14 | 72 | 6 | 1490 | C=CC(=O)Nc1ccccc1Nc1nc(Nc2ccc(N3CCN(C)CC3)cc2)ncc1-c1ccc(C(C)=O)cc1
15 | 54 | 4 |  | C=CC(=O)Nc1ccccc1Nc1nc(Nc2ccc(N3CCN(C)CC3)cc2)ncc1Cl
16 | 20 | 6 | 1890 | C=CC(=O)Nc1ccccc1Nc1nc(Nc2ccc(N3CCN(C)CC3)cc2)ncc1-c1ccc(OC)nc1
17 | 17 | 3 | 543 | C=CC(=O)Nc1ccccc1Nc1nc(Nc2ccc(N3CCN(C)CC3)cc2)ncc1-c1cccs1
18 | 12 | 2 | 224 | C=CC(=O)Nc1ccccc1Nc1nc(Nc2ccc(N3CCN(C)CC3)cc2)ncc1-c1ccoc1
